According to ChEMBL document CHEMBL6087462, “Cuminaldehyde Potentiates Antiproteolytic Peptide Efficacy via Parallel Pathways of Enhanced Inner Membrane-Damaging Activity and Inhibition of Bacterial Energy Metabolism” (J Med Chem, 2025):

Tests used:
Escherichia coli [1] = assay: Synergistic antimicrobial activity against Escherichia coli K99 assessed as fractional inhibitory concentration index in presence of thymol by checkerboard broth microdilution assay; type: functional
[2] = tested on: Staphylococcus epidermidis; assay: Synergistic antimicrobial activity against Staphylococcus epidermidis 12228 assessed as fractional inhibitory concentration index in presence of cuminaldehyde by checkerboard broth microdilution assay; type: functional
Pseudomonas aeruginosa [3] = assay: Synergistic antimicrobial activity against Pseudomonas aeruginosa 27853 assessed as fractional inhibitory concentration index in presence of cuminaldehyde by checkerboard broth microdilution assay; type: functional
Escherichia coli [4] = assay: Synergistic antimicrobial activity against Escherichia coli K99 assessed as fractional inhibitory concentration index in presence of cuminaldehyde by checkerboard broth microdilution assay; type: functional
Escherichia coli [5] = assay: Synergistic antimicrobial activity against Escherichia coli K99 assessed as fractional inhibitory concentration by checkerboard broth microdilution assay; type: functional
[6] = Synergistic antimicrobial activity against Salmonella enterica subsp. enterica serovar Pullorum 7913 assessed as fractional inhibitory concentration index in presence of citral by checkerboard broth microdilution assay; type: functional
Escherichia coli [7] = assay: Antimicrobial activity against Escherichia coli UB 1005 assessed as reduction in microbial growth by CLSI based broth microdilution method; type: functional
Salmonella typhimurium [8] = assay: Antimicrobial activity against Salmonella typhimurium ATCC 7731 assessed as cuminaldehyde MIC by CLSI based broth microdilution method; type: functional, Salmonella enterica subsp. enterica serovar Typhimurium; conditions: Salmonella enterica
Enterococcus faecalis [9] = assay: Synergistic antimicrobial activity against Enterococcus faecalis 29212 assessed as fractional inhibitory concentration index in presence of perillaldehyde by checkerboard broth microdilution assay; type: functional
Staphylococcus aureus [10] = assay: Synergistic antimicrobial activity against Staphylococcus aureus 43300 assessed as fractional inhibitory concentration by checkerboard broth microdilution assay; type: functional
Staphylococcus aureus [11] = assay: Synergistic antimicrobial activity against Staphylococcus aureus 29213 assessed as fractional inhibitory concentration index in presence of cuminaldehyde by checkerboard broth microdilution assay; type: functional
Staphylococcus aureus [12] = assay: Antimicrobial activity against Staphylococcus aureus 43300 assessed as cuminaldehyde MIC by CLSI based broth microdilution method; type: functional
Escherichia coli [13] = assay: Synergistic antimicrobial activity against Escherichia coli 078 assessed as fractional inhibitory concentration index in presence of perillaldehyde by checkerboard broth microdilution assay; type: functional, 78
[14] = Synergistic antimicrobial activity against Salmonella enterica subsp. enterica serovar Pullorum 7913 assessed as fractional inhibitory concentration index in presence of citronellal by checkerboard broth microdilution assay; type: functional
Staphylococcus aureus [15] = assay: Synergistic antimicrobial activity against Staphylococcus aureus 25923 assessed as fractional inhibitory concentration index in presence of cuminaldehyde by checkerboard broth microdilution assay; type: functional
Staphylococcus aureus [16] = assay: Synergistic antimicrobial activity against Staphylococcus aureus 29213 assessed as fractional inhibitory concentration index in presence of carvacrol by checkerboard broth microdilution assay; type: functional
[17] = Synergistic antimicrobial activity against Salmonella enterica subsp. enterica serovar Pullorum ATCC 7913 assessed as fractional inhibitory concentration by checkerboard broth microdilution assay; type: functional
Salmonella typhimurium [18] = assay: Synergistic antimicrobial activity against Salmonella typhimurium ATCC 7731 assessed as fractional inhibitory concentration by checkerboard broth microdilution assay; type: functional, Salmonella enterica subsp. enterica serovar Typhimurium
Staphylococcus aureus [19] = assay: Antimicrobial activity against Staphylococcus aureus ATCC 25923 assessed as reduction in microbial growth by CLSI based broth microdilution method; type: functional
Escherichia coli [20] = assay: Antimicrobial activity against Escherichia coli 078 assessed as reduction in microbial growth in presence of cuminaldehyde by CLSI based broth microdilution method; type: functional; conditions: 78
Staphylococcus aureus [21] = assay: Synergistic antimicrobial activity against Staphylococcus aureus 25923 assessed as fractional inhibitory concentration index in presence of perillaldehyde by checkerboard broth microdilution assay; type: functional
Salmonella typhimurium [22] = assay: Antimicrobial activity against Salmonella typhimurium ATCC 7731 assessed as reduction in microbial growth by CLSI based broth microdilution method; type: functional, Salmonella enterica subsp. enterica serovar Typhimurium; conditions: Salmonella enterica
Pseudomonas aeruginosa [23] = assay: Synergistic antimicrobial activity against Pseudomonas aeruginosa 27853 assessed as fractional inhibitory concentration index in presence of citral by checkerboard broth microdilution assay; type: functional
Escherichia coli [24] = assay: Synergistic antimicrobial activity against Escherichia coli K88 assessed as fractional inhibitory concentration index in presence of carvacrol by checkerboard broth microdilution assay; type: functional
Enterococcus faecalis [25] = assay: Synergistic antimicrobial activity against Enterococcus faecalis 29212 assessed as fractional inhibitory concentration index in presence of citral by checkerboard broth microdilution assay; type: functional
Escherichia coli [26] = assay: Antimicrobial activity against Escherichia coli UB 1005 assessed as reduction in microbial growth in presence of cuminaldehyde by CLSI based broth microdilution method; type: functional
Staphylococcus aureus [27] = assay: Synergistic antimicrobial activity against Staphylococcus aureus 29213 assessed as fractional inhibitory concentration index in presence of citral by checkerboard broth microdilution assay; type: functional
Staphylococcus aureus [28] = assay: Synergistic antimicrobial activity against Staphylococcus aureus ATCC 29213 assessed as fractional inhibitory concentration by checkerboard broth microdilution assay; type: functional
Staphylococcus aureus [29] = assay: Synergistic antimicrobial activity against Staphylococcus aureus 29213 assessed as fractional inhibitory concentration index in presence of perillaldehyde by checkerboard broth microdilution assay; type: functional
Escherichia coli [30] = assay: Antimicrobial activity against Escherichia coli K99 assessed as cuminaldehyde MIC by CLSI based broth microdilution method; type: functional
Escherichia coli [31] = assay: Synergistic antimicrobial activity against Escherichia coli ATCC 25922 assessed as fractional inhibitory concentration by checkerboard broth microdilution assay; type: functional
Staphylococcus aureus [32] = assay: Synergistic antimicrobial activity against Staphylococcus aureus 43300 assessed as fractional inhibitory concentration index in presence of thymol by checkerboard broth microdilution assay; type: functional
Staphylococcus aureus [33] = assay: Antimicrobial activity against Staphylococcus aureus ATCC 29213 assessed as reduction in microbial growth in presence of cuminaldehyde by CLSI based broth microdilution method; type: functional
[34] = Synergistic antimicrobial activity against Salmonella enterica subsp. enterica serovar Pullorum 7913 assessed as fractional inhibitory concentration index in presence of cuminaldehyde by checkerboard broth microdilution assay; type: functional
Escherichia coli [35] = assay: Synergistic antimicrobial activity against Escherichia coli K88 assessed as fractional inhibitory concentration index in presence of thymol by checkerboard broth microdilution assay; type: functional
Escherichia coli [36] = assay: Antimicrobial activity against Escherichia coli K99 assessed as reduction in microbial growth by CLSI based broth microdilution method; type: functional
Salmonella typhimurium [37] = assay: Synergistic antimicrobial activity against Salmonella typhimurium 14028 assessed as fractional inhibitory concentration index in presence of carvacrol by checkerboard broth microdilution assay; type: functional, Salmonella enterica subsp. enterica serovar Typhimurium
Escherichia coli [38] = assay: Synergistic antimicrobial activity against Escherichia coli 078 assessed as fractional inhibitory concentration index in presence of carvacrol by checkerboard broth microdilution assay; type: functional, 78
Salmonella typhimurium [39] = assay: Synergistic antimicrobial activity against Salmonella typhimurium ATCC 14028 assessed as fractional inhibitory concentration by checkerboard broth microdilution assay; type: functional, Salmonella enterica subsp. enterica serovar Typhimurium
Escherichia coli [40] = assay: Synergistic antimicrobial activity against Escherichia coli K99 assessed as fractional inhibitory concentration index in presence of citral by checkerboard broth microdilution assay; type: functional
Pseudomonas aeruginosa [41] = assay: Synergistic antimicrobial activity against Pseudomonas aeruginosa ATCC 27853 assessed as fractional inhibitory concentration by checkerboard broth microdilution assay; type: functional
Salmonella typhimurium [42] = assay: Synergistic antimicrobial activity against Salmonella typhimurium 7731 assessed as fractional inhibitory concentration index in presence of carvacrol by checkerboard broth microdilution assay; type: functional, Salmonella enterica subsp. enterica serovar Typhimurium
Salmonella typhimurium [43] = assay: Antimicrobial activity against Salmonella typhimurium ATCC 14028 assessed as reduction in microbial growth by CLSI based broth microdilution method; type: functional, Salmonella enterica subsp. enterica serovar Typhimurium; conditions: Salmonella enterica
[44] = tested on: Staphylococcus epidermidis; assay: Synergistic antimicrobial activity against Staphylococcus epidermidis 12228 assessed as fractional inhibitory concentration index in presence of carvacrol by checkerboard broth microdilution assay; type: functional

CC[C@H](C)[C@H](NC(=O)[C@@H](NC(=O)[C@@H](CCCNC(=N)N)NC(=O)[C@H](C)NC(=O)[C@H](C)NC(=O)[C@@H](N)Cc1cccc2ccccc12)[C@@H](C)CC)C(=O)N[C@@H](CC(C)C)C(=O)N[C@H](CCCNC(=N)N)C(=O)N[C@@H](Cc1c[nH]c2ccccc12)C(=O)N[C@H](CCCNC(=N)N)C(=O)N[C@@H](Cc1ccccc1)C(=O)N[C@@H](CCCNC(=N)N)C(=O)O
fractional inhibitory concentration index (FICI) (Escherichia coli [1]): 0.5 | fractional inhibitory concentration index (FICI) [2]: 0.375 | fractional inhibitory concentration index (FICI) (Pseudomonas aeruginosa [3]): 0.156 | fractional inhibitory concentration index (FICI) (Escherichia coli [4]): 0.375 | FIC (Escherichia coli [5]): 0.25 | fractional inhibitory concentration index (FICI) [6]: 0.25 | MIC (Escherichia coli [7]): 16 µg/mL | MIC (Salmonella typhimurium [8]): 1020 µg/mL | fractional inhibitory concentration index (FICI) (Enterococcus faecalis [9]): 0.625 | FIC (Staphylococcus aureus [10]): 0.25 | fractional inhibitory concentration index (FICI) (Staphylococcus aureus [11]): 0.094 | MIC (Staphylococcus aureus [12]): 1020 µg/mL | fractional inhibitory concentration index (FICI) (Escherichia coli [13]): 0.188 | fractional inhibitory concentration index (FICI) [14]: 0.25 | fractional inhibitory concentration index (FICI) (Staphylococcus aureus [15]): 0.188 | fractional inhibitory concentration index (FICI) (Staphylococcus aureus [16]): 0.313 | FIC [17]: 0.125 | FIC (Salmonella typhimurium [18]): 0.063 | MIC (Staphylococcus aureus [19]): 16 µg/mL | MIC (Escherichia coli [20]): 2 µg/mL | fractional inhibitory concentration index (FICI) (Staphylococcus aureus [21]): 0.625 | MIC (Salmonella typhimurium [22]): 8 µg/mL | fractional inhibitory concentration index (FICI) (Pseudomonas aeruginosa [23]): 0.141 | fractional inhibitory concentration index (FICI) (Escherichia coli [24]): 0.313 | fractional inhibitory concentration index (FICI) (Enterococcus faecalis [25]): 0.375 | MIC (Escherichia coli [26]): 0.5 µg/mL | fractional inhibitory concentration index (FICI) (Staphylococcus aureus [27]): 0.385 | FIC (Staphylococcus aureus [28]): 0.25 | fractional inhibitory concentration index (FICI) (Staphylococcus aureus [29]): 0.25 | MIC (Escherichia coli [30]): 1020 µg/mL | FIC (Escherichia coli [31]): 0.125 | fractional inhibitory concentration index (FICI) (Staphylococcus aureus [32]): 0.75 | MIC (Staphylococcus aureus [33]): 2 µg/mL | fractional inhibitory concentration index (FICI) [34]: 0.125 | fractional inhibitory concentration index (FICI) (Escherichia coli [35]): 0.313 | MIC (Escherichia coli [36]): 8 µg/mL | fractional inhibitory concentration index (FICI) (Salmonella typhimurium [37]): 0.5 | fractional inhibitory concentration index (FICI) (Escherichia coli [38]): 0.5 | FIC (Salmonella typhimurium [39]): 0.25 | fractional inhibitory concentration index (FICI) (Escherichia coli [40]): 0.375 | FIC (Pseudomonas aeruginosa [41]): 0.125 | fractional inhibitory concentration index (FICI) (Salmonella typhimurium [42]): 0.5 | MIC (Salmonella typhimurium [43]): 4 µg/mL | fractional inhibitory concentration index (FICI) [44]: 1
